Patent US5917057A, “N-hydroxy-dibenz[b,e]oxepinalkylamines, n-hydroxy-dibenz[b,e]oxepinalkanoic acid amides and related heterocyclic analogues” (Hoechst Marion Roussel, Inc., priority 1998, dated 1999)

Key:
[1] = system: mouse ear edema induced by topical application of arachidonic acid; assay: Arachidonic Acid-Induced Mouse Ear Edema (AAEE); assay type: in vivo, Female Swiss Webster mice; conditions: 1 mg/ear topical, 30 min before arachidonic acid 4 mg/ear; relative to control
Description: Arachidonic Acid-Induced Mouse Ear Edema (AAEE)
The purpose of this assay was to determine the ability of a topically applied compound to prevent mouse ear edema induced by topical application of arachidonic acid. Female Swiss Webster mice topically received vehicle or test compound (1.0 mg/ear) on both ears (10 μl on outer and inner ears). After 30 minutes, arachidonic acid is applied to the right ear of each mouse of each group in the amount of 4 mg/ear. Vehicle is applied to the left ear of each mouse of each group at a volume of 20 μl/ear. After an additional hour, the mice are sacrificed and a 4 mm plug is taken from each ear and weighed. The difference between the right and left ear plugs was determined for each animal. The antiinflammatory activity of the test compound is expressed as the mean percent change in the ear plug weight of the treated animals relative to the mean percent change in weights of control animals' ear. (Standard: Indomethacin--90% at 1 mg/ear). Young, J. M. et al., Invest. Dermatol., 80, (1983), pp. 48-52.

[2] = system: naja naja (snake venom) phospholipase A2 (PLA2)-induced paw edema; assay: Phospholipase A2-Induced Paw Edema (PIPE); assay type: in vivo, male Wistar rats; conditions: subplantar; for PIPE 0.1M: 0.1 M test compound injected with PLA2 (3 units/100 μl/paw), rat left hindpaw, two hours; for PIPE ED50: standards, rat hindpaw
Description: Phospholipase A2 -Induced Paw Edema (PIPE)
The ability of compounds to reverse naja naja (snake venom) phospholipase A2 (PLA2)-induced paw edema in male Wistar rats (100-125 gm) was measured. PLA2 (3 units/100 μl dH2 O/paw) alone or with 0.1 M of the test compound was injected in the subplantar region of the rat left hindpaw. Immediately following injection and at two hours post administration, the paw was immersed in a mercury bath, and paw displacement was measured on a recorder via a transducer. The value was then converted to mm Hg. […] Giessler, A. J. et al., "Agents and Actions", Vol. 10, "Trends in Inflammation Research" (1981), p. 195.

5-lipoxygenase = target: T1, 5-lipoxygenase (Rattus norvegicus, UniProt P12527); assay: In Vitro 5-Lipoxygenase Assay (5-HETE); assay type: biochemical; conditions: RBL-1 cell-free supernatant, 10 μM arachidonic acid, 37° C.
T1 construct: cell-free 5-lipoxygenase enzyme obtained from rat basophilic leukemia (RBL-1) cells; endogenous in cells; host or cells: RBL-1 rat basophilic leukemia cells, cell-free supernatant of sonicated cells
T1 sequence (P12527 1-673): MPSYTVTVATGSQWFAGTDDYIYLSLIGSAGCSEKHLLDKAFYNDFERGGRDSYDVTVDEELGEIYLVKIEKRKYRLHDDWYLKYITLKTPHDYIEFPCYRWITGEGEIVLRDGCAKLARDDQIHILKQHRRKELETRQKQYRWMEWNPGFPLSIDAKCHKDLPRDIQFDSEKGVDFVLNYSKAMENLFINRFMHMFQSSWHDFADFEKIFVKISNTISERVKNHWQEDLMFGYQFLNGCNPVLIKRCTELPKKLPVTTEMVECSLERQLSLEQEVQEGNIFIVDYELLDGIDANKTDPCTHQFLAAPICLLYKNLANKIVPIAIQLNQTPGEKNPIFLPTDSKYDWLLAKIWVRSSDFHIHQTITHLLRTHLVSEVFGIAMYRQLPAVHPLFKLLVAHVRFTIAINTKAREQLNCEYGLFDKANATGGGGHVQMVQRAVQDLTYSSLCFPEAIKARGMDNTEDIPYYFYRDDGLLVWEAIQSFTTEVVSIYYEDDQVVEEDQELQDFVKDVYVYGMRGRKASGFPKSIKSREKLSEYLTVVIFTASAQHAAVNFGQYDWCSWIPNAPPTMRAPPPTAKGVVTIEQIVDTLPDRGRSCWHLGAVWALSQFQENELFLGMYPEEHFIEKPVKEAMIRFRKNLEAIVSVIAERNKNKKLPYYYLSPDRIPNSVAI
Description: The ability of a compound to reduce 5-HETE production by cell-free 5-lipoxygenase enzyme obtained from rat basophilic leukemia (RBL-1) cells was measured by a modified procedure of Cochran et al. [Biochem. Biophys. Res. Commun., 161, 1327 (1989)]. RBL-1 cell-free supernatants were prepared by a modification of the method of Jakschik et al., [Prostaglandins, 25, 767 (1983)]. Cells (1×10^9) were collected by centrifugation (22°) and washed at […] with 50 mM phosphate buffer at 5×10^7 cells/ml. Cells were lysed on ice for 45 seconds with a Teckmar sonic disrupter. The homogenate was centrifuged (4° C) for 25 minutes and the supernatant (5 μg protein/μl) was decanted and stored at -80° C. A 1% dimethylsulfoxide (DMSO) vehicle (DMSO in deionized water) was utilized at various concentrations of the test compound. Duplicate reactions were run in 35mM buffer in the presence of 5 μM ATP, 50 μM CaCl2 and 10 μM arachidonic acid at 37° C. The reaction was terminated with 10 μl 0.3 citrate buffer and diluted with BGGE buffer (0.01M phosphate, 0.1% bovine gamma globulin, pH 8.5) containing 114 μM BHT with ice bath cooling. 5-Hydroxyeicosatetraenoic acid (5-HETE) levels were quantitated by radioimmunoassay according to standard procedures.

[3] = system: ear edema induced by topical application of TPA (phorbol 12-myristate acetate); assay: TPA-Induced Ear Edema (TPAEE); assay type: in vivo, Female Swiss Webster mice; conditions: 10 μg/ear topical; TPA 10 μg/ear; about 5 hours; relative to control
Description: TPA-Induced Ear Edema (TPAEE)
The purpose of this assay was to determine the ability of a topically applied compound to prevent ear edema induced by topical application of TPA (phorbol 12-myristate acetate). Female Swiss Webster mice topically received TPA (10 μg/ear) on the right ear and vehicle on the left ear. The test compound (10 μg/ear) was applied to both ears. After about 5 hours, the animals are sacrificed and a 4 mm diameter plug is taken from each ear and weighed. The difference between the right and left ear plug weights for each animal was determined. The antiinflammatory activity of the test compound is expressed as the mean percent change in ear plug weight of the treated animals compared to the mean percent change in the plug weight of the control animals. (Standard: Indomethacin:--86% at 1 mg/ear). Young, J. M. et al., J. Invest. Dermatol., 80 (1983), pp. 48-52.

[4] = system: cyclooxygenase metabolite (PGE2) formation in cultured 3T3 mouse fibroblasts (CCL92-3T3); assay: In Vitro Cyclooxygenase Assay (PGE2); assay type: cell-based; conditions: Fibroblast, 24 hours; for IC50: radioimmunoassay
Description: The ability of a compound to reduce cyclooxygenase metabolite formation in cultured 3T3 mouse fibroblasts (CCL92-3T3) was measured by radioimmunoassay of prostaglandin E2 (PGE2) levels in the culture media. The 3T3 cells were maintained in complete Dulbecco's Modified Eagles Medium (DMEM) containing 10% calf serum, 2 mM L-glutamine and 5000 units/ml of penicillin/streptomycin. After seeding in 24 mm tissue culture dishes at […], the cells were cultured for 24 hours. Media was removed by aspiration and replaced with DMEM (1 ml/well, 4 wells/treatment) containing test compound, which was previously dissolved in ethanol, or vehicle at various concentrations. The cells were then incubated for 24 hours and PGE2 levels in the media were quantitated by radioimmunoassay according to established procedure (Lingren et al., FEBS Lett., 48, 22). The mean value from duplicate determinations was utilized to assess the % change from control values for each treatment group.

[5] = system: phenyl-para-quinone induced writhing; assay: phenyl-para-benzoquinone writhing assay in mice (analgesia); assay type: in vivo; conditions: at 20 mg/kg
Excerpt: The compounds of the present invention are also useful as analgesic agents due to their ability to alleviate pain in mammals. […] Exptl. Biol. Med., 95, 729 (1957)].

Row | Compound | AAEE % Change [1] [%] | PIPE 0.1M [2] | IC50 (5-lipoxygenase) [nM] | TPAEE percent change [3] [%] | IC50 [4] [nM] | % Inhibition of Writhing [5] [%] | PIPE ED50 [2] [M] | inhibition at 1 µM ([4]; @1 μM, read-out: PGE2 % change) [%]
1 | CN(O)CCc1ccc2c(c1)C(=O)c1ccccc1CO2 [2-(6,11-Dihydro-11-oxodibenz[b,e]oxepin-2-yl)-N-hydroxy-N-methyl-ethylamine] | -46 | -70 | 240 | -50 | 100 |  |  | 
2 | O=C1c2ccccc2COc2ccc(CCC(=O)N(O)C3CCCCC3)cc21 [3-(6,11-Dihydro-11-oxodibenz[b,e]oxepin-2-yl)-N-cyclohexyl-N-hydroxypropanamide] |  |  |  |  |  | 76 |  | 
3 | CN(O)C(=O)CCc1ccc2c(c1)C(=O)c1ccccc1CO2 [3-(6,11-Dihydro-11-oxodibenz[b,e]oxepin-2-yl)-N-hydroxy-N-methylpropanamide] | -63 | -46 | 50 | -71 | 780 |  |  | 
4 | C[C@]12CCC(=O)C=C1CC[C@@H]1[C@@H]2[C@@H](O)C[C@@]2(C)[C@H]1CC[C@]2(O)C(=O)CO [Hydrocortisone, reference compound] |  |  |  |  |  |  | 0.46 | 
5 | CCN(O)CCc1ccc2c(c1)Cc1ccccc1CO2 [2-(6,11-Dihydrodibenz[b,e]oxepin-2-yl)-N-ethyl-N-hydroxyethylamine] | -50 |  | 280 | -84 |  |  |  | 
6 | O=C1c2ccccc2COc2ccc(CC(=O)N(O)C3CCCCC3)cc21 [N-Cyclohexyl-2-(6,11-dihydro-11-oxodibenz[b,e]oxepin-2-yl)-N-hydroxyacetamide] | -29 | -85 | 500 | -52 |  | 68 |  | 17
7 | CCN(CC)CCCC(C)Nc1c2ccc(Cl)cc2nc2ccc(OC)cc12 (centres unmarked) [Quinacrine, reference compound] |  |  |  |  |  |  | 0.1 | 
8 | CN(O)C(=O)CCc1ccc2c(c1)Cc1ccccc1CO2 [3-(6,11-Dihydro-dibenz[b,e]oxepin-2-yl)-N-hydroxy-N-methylpropanamide] | -67 |  | 80 |  | 1000 |  |  | 
9 | CC(C)Cc1ccc(C(C)C(=O)O)cc1 (centres unmarked) [Ibuprofen, reference compound] |  |  |  |  | 22 |  |  | 
